Marks after values point to notes of the source that are not given here. Where no end group is shown, it is not given here.
Key:
Format in all cases: cell-based
Human Cav2.3d (Y1761F) = conditions: 50 µM
Human Cav2.3d (Y1765F) = conditions: read-out: IBa inhibition; 50 µM
Human Cav2.3c (Y1761F) = conditions: 50 µM
Human Cav2.1 (L1852T) = conditions: read-out: IBa inhibition; 50 µM
Human Cav2.1 (Q1856E) = conditions: read-out: IBa inhibition; 50 µM
[1] = test system: c-Src / human Cav2.3c channel and GABABR
[2] = test system: c-Src / human Cav2.1 channel and GABABR

Molecule	IBa inhibition (Human Cav2.3d (Y1761F))	inhibition (Human Cav2.3d (Y1765F)) [%]	IBa inhibition (Human Cav2.3c (Y1761F))	inhibition (Human Cav2.1 (L1852T)) [%]	inhibition (Human Cav2.1 (Q1856E)) [%]	effect of pp60c-Src peptide on c-Vc1.1 and baclofen inhibition of IBa [1]	baclofen inhibition of IBa with wild-type c-Src overexpression or pp60c-Src peptide [2]
NCC(CC(=O)O)c1ccc(Cl)cc1 (stereo not shown) [Baclofen, baclofen]	21.9 ± 1.8 (11) ^c %	28.9	14.6 ± 1.8 (8) ^c %	50.6	47.9		
pp60c-Src peptide: phosphorylated synthetic pp60c-Src peptide (521–533) (DYFTSTEPQYQPG; also: phosphorylated, site not given here; UniProt P12931 521-533, looked up, fragment)						The effect of K295R/Y527F c-Src was recapitulated	did not affect baclofen inhibition of IBa

— publication PMC3971658 (The Journal of General Physiology, 2014)
